# From patent publication US12622899B2 (PureTech LYT 100, Inc., priority 2018, dated 2026)
# Assays:
# [1] = system: patients with Idiopathic Pulmonary Fibrosis (IPF); assay: IPF trial Part A (26-week double-blind): efficacy, FVC and FVCpp, time to progression; assay type: in vivo, human; conditions: for FVC, Bayesian Posterior Mean Difference vs. Placebo / FVC, Frequentist Adjusted Mean Difference vs. Placebo / FVCpp, Bayesian Posterior Mean comparison vs. Placebo / FVCpp, Frequentist Adjusted Mean comparison vs. Placebo / Treatment effect, FVC, versus placebo / Treatment effect, FVCpp, versus placebo: 26 weeks
# Protocol: The primary objective was to determine the dose(s) to carry into Phase 3. […] Patients were randomized to one of the four treatments in a 1:1:1:1 ratio and stratified based on prior exposure to nintedanib (<6 months) versus nintedanib-naïve patients. Patients who completed the Double-blind Treatment Period (Part A) were offered participation in the Long-term Extension (Part B). […] For patients who participated in Part B, the follow-up was conducted at the end of Part B. A graphical illustration of an embodiment of the trial design is provided as FIG. 24B.
# Doses were adjusted according to safety and tolerability to avoid toxicity.
# Note that, for all treatment groups, the first 7 days of treatment, one capsule was taken TID., Day 8 through Day 14, two capsules TID., and Day 15 forward, 3 capsules TID.
# Weekly home FVC was assessed with an individual spirometer, which was supplied to each patient. The site used its own equipment for in-clinic FVC assessments. Spirometry measurements were performed according to the American Thoracic Society/European Respiratory Society (“An Official American Thoracic Society and European Respiratory Society Technical Statement Technical Statement” Am J Respir Crit Care Med. 2019; 200(8):e71-e83) and the study specific Pulmonary Function Manual, at timepoints specified in the Schedule of Assessments. Spirometry was conducted while the patient was in a seated position. The test was done in order to achieve three acceptable FVC measurements (three curves to be provided), and the best result selected according to the guidelines. The best of three efforts was defined as the highest FVC, obtained on any of the three blows meeting the ATS/ERS/JRS/ALAT 2019 criteria (Graham et al, 2019) with preferably a maximum of eight attempts.
# Pulmonary function was measured in a standardized manner and results transmitted electronically during the visit immediately after performing the spirometry and evaluated by a central reader. In case the acceptability and repeatability criteria as specified by ATS/ERS/JRS/ALAT guidelines were not met, a repeat spirometry was performed during the same visit.
# The primary efficacy endpoint was the rate of decline in FVC mL over 26 weeks. In addition, decline in FVC % predicted from baseline to Week 26 and by >10% and >5% was assessed.
# The secondary endpoint was comparison of FVC % predicted change from baseline to Week 26.
# The following parameters were measured or calculated as part of the spirometry assessment: • FVC (mL) and FVC % predicted (FVCpp) • FEV1 (mL) and percent predicted forced expiratory volume in 1 second (FEV1% p) • FEV1/FVC ratio • Forced expiratory flow between 25% and 75% of exhaled volume (FEF25-75) The ‘2012 Global Lung Function Initiative Equations’ was used to calculate the predicted values (Quanjer et al, “Multi-ethnic reference values for spirometry for the 3-95 year age range: the global lung function 2012 equations: Report of the Global Lung Function Initiative (GLI), ERS Task Force to establish improved Lung Function Reference Values.,” Eur Respir J, vol. 40(6), pp. 1324-1343, 2012). […]
# [2] = Study LYT-100-2021-103 Part 3 (Example 2): PK of LYT-100 550 mg TID then 824 mg TID; assay type: in vivo, human
# Protocol: Subjects provided blood samples prior to treatment, i.e., Day −1 or Day 1, for the determination of CYP1A2, CYP2C9, CYP2C19, and CYP2D6 genotype to support exploratory PK analyses. Subjects were required to provide consent for genotyping. Blood samples for PK were collected at specified times, as follows: • Day 1:0 (pre-AM dose) • Day 2: no sampling • Day 3:0 (pre-AM dose), and 1, 2, 3, 4, 6 (pre-mid-day dose), 7, 8, 9, 10, 12 (pre-PM dose), 13, 14, 15, 16, and 17 hours post-AM dose • Day 4:0 (pre-AM dose) • Day 5: no sampling • Day 6:0 (pre-AM dose), and 1, 2, 3, 4, 6 (pre-mid-day dose), 7, 8, 9, 10, 12 (pre-PM dose), 13, 14, 15, 16, and 17 hours post-AM dose • Day 7:0 (same time as Day 6 pre-AM dose, discharge)
# Data was obtained for thirty subjects. Eight subjects had all values reported as below level of quantitation (BLQ; assumed to be 6 placebo subjects plus 2 active subjects with Day 1 pre-dose samples only). One additional subject was excluded due to a large number of BLQ samples on both Days 3-4 and 6-7. Accordingly, twenty-one subjects had sufficient PK data available to calculate PK parameters at the lower dose (550 mg TID on Days 3-4). Three subjects only had data for Days 3-4, and therefore had missing PK parameters for the higher dose (824 mg TID on Days 6-7).
# [3] = deupirfenidone 550 mg TID, N=65
# [4] = deupirfenidone 825 mg TID, N=63
# [5] = deupirfenidone 825 mg TID, N=63, listed as Deupirfenidone
# [6] = deupirfenidone 825 mg TID, N=63, listed as deupirfenidone
smiles,measurement,setting,value
"[2H]C([2H])([2H])c1ccc(=O)n(-c2ccccc2)c1 [LYT-100, 5-(methyl-d3)-1-phenylpyridin-2-(1H)-one]","FVC, Bayesian Posterior Mean Difference vs. Placebo",[1]; deupirfenidone 550 mg TID,34.1 mL
same,"FVC, Frequentist Adjusted Mean Difference vs. Placebo",[1]; deupirfenidone 550 mg TID,31.8 mL
same,"FVCpp, Bayesian Posterior Mean comparison vs. Placebo",[1]; deupirfenidone 550 mg TID,1.47
same,"FVCpp, Frequentist Adjusted Mean comparison vs. Placebo",[1]; deupirfenidone 550 mg TID,1.62
same,"Treatment effect, FVC, versus placebo",[1]; deupirfenidone 550 mg TID,28.3%
same,"Treatment effect, FVCpp, versus placebo",[1]; deupirfenidone 550 mg TID,47.2%
same,"FVC, Bayesian Posterior Mean Difference vs. Placebo",[1]; deupirfenidone 825 mg TID,90.9 mL
same,"FVC, Frequentist Adjusted Mean Difference vs. Placebo",[1]; deupirfenidone 825 mg TID,91.0 mL
same,"FVCpp, Bayesian Posterior Mean comparison vs. Placebo",[1]; deupirfenidone 825 mg TID,2.85
same,"FVCpp, Frequentist Adjusted Mean comparison vs. Placebo",[1]; deupirfenidone 825 mg TID,3.00
same,"Treatment effect, FVC, versus placebo",[1]; deupirfenidone 825 mg TID,80.9%
same,"Treatment effect, FVCpp, versus placebo",[1]; deupirfenidone 825 mg TID,87.5%
same,"Treatment effect, FVC, versus placebo","[1]; deupirfenidone 825 mg TID, listed as Deupirfenidone",80.9%
same,"Treatment effect, FVC, versus placebo","[1]; deupirfenidone 825 mg TID, listed as deupirfenidone",80.9%
same,6-month FVC decline compared with healthy older adults,[1]; LYT-100 825 mg TID (FIG. 45),in line with that seen for healthy adults >60 years
same,"Cohen's D, FVC",[1]; deupirfenidone 550 mg TID,0.14
same,"Cohen's D, FVCpp",[1]; deupirfenidone 550 mg TID,0.23
same,"Change from Baseline in FVC over 26 Weeks, Bayesian Posterior Mean (SE)",[1]; [3],−76.7 (28.60) mL
same,"Change from Baseline in FVC over 26 Weeks, Frequentist Adjusted Mean (SE)",[1]; [3],−80.7 (29.32) mL
same,"Change from Baseline in FVCpp over 26 Weeks, Bayesian Posterior Mean (SE)",[1]; [3],−1.80 (0.88)
same,"Change from Baseline in FVCpp over 26 Weeks, Frequentist Adjusted Mean (SE)",[1]; [3],−1.81 (0.886)
same,"Cohen's D, FVC",[1]; deupirfenidone 825 mg TID,0.40
same,"Cohen's D, FVCpp",[1]; deupirfenidone 825 mg TID,0.44
same,"Change from Baseline in FVC over 26 Weeks, Bayesian Posterior Mean (SE)",[1]; [4],−19.9 (28.29) mL
same,"Change from Baseline in FVCpp over 26 Weeks, Bayesian Posterior Mean (SE)",[1]; [4],−0.42 (0.88)
same,"Change from Baseline in FVC over 26 Weeks, Frequentist Adjusted Mean (SE)",[1]; [5],−21.5 (28.86) mL
same,"Change from Baseline in FVCpp over 26 Weeks, Frequentist Adjusted Mean (SE)",[1]; [5],−0.43 (0.872)
same,"Change from Baseline in FVC over 26 Weeks, Frequentist Adjusted Mean (SE)",[1]; [6],-21.5 mL
same,"Change from Baseline in FVCpp over 26 Weeks, Frequentist Adjusted Mean (SE)",[1]; [6],−0.43
same,"Cmax, PK Parent","[2]; Healthy Older Part 3, LYT-100 824 mg TID, fed, N=13, mean (SD)",13.7 (5.1) mcg/mL
same,"AUC, % higher compared to historic pirfenidone PK values",[2]; LYT-100 824 mg TID,approximately 25%
same,"exposure equivalent, % of 801 TID pirfenidone",[2]; LYT-100 825 mg TID,120-150%
same,"Cmax, % higher than with pirfenidone","[2]; Part 3, LYT-100 824 mg TID",17%
